From ChEMBL document CHEMBL4219230, “Design, synthesis and biological evaluation of novel 4-phenylisoquinolinone BET bromodomain inhibitors” (Bioorg Med Chem Lett, 2018)
Values after ≈ are worked out from the molar mass of the structure shown.

Experiments:
[1] = in vitro; conditions: mouse
Description: Half life in mouse liver microsomes

[2] = Protein binding in mouse plasma; format: ADME, cell-free; conditions: read-out: PPB (converted)
[3] = Protein binding in human plasma; format: ADME, cell-free; conditions: read-out: PPB (converted)
[4] = in vivo; conditions: CD1, mouse, po, 10 mg/kg
[5] = in vitro; conditions: dog, MDCK-MDR1
Description: Permeability across apical to basolateral side in MDCK cells expressing MDR1

[6] = physchem; conditions: buffer, pH 7.4
Description: Solubility of the compound at pH 7.4

| SMILES | half-life ([1]; microsomes) [h] | fraction unbound [2] | fraction unbound [3] | AUC(0-t) at 6 h [4] [ng·h/mL] | half-life ([1]; liver microsomes) [h] | Papp A→B [5] [×10⁻⁶ cm/s] | solubility [6] [µg/mL] |
| --- | --- | --- | --- | --- | --- | --- | --- |
| CCNC(=O)C[C@@H]1N=C(c2ccc(Cl)cc2)c2cc(OC)ccc2-n2c(C)nnc21 [MOLIBRESIB] | 1.58 |  |  |  |  |  |  |
| CCOc1ccc(S(=O)(=O)CC)cc1-c1cn(C)c(=O)c2ccc(-c3cnn(C)c3)cc12 |  | 0.14 | 0.12 | 11400 | > 3.33 | 6 | 12 (≈ 26.6 µM) |
